Source: PMC12430443, “Discovery of Novel Benzamide-Based Sigma-1 Receptor Agonists with Enhanced Selectivity and Safety” (Molecules, 2025)

Legend:
[1] = target: T1, S1R (Homo sapiens, UniProt Q99720); test: S1R competitive radioligand binding, [3H](+)-pentazocine, Jurkat cell membranes; conditions: for IC50: [3H]-(+)-pentazocine displacement, n = 2; for IC50 / Ki: Jurkat cell membranes; for Ki (S2R)/ Ki (S1R): selectivity ratio S2R/S1R; for Ki: [3H](+)-pentazocine, mean of 2–3 independent experiments
T1 construct: For the S1R assay, Jurkat cell membranes (10–20 μg protein/tube) were incubated at 37 °C for 2 h; host or cells: Jurkat cell membranes
T1 sequence (Q99720 whole entry): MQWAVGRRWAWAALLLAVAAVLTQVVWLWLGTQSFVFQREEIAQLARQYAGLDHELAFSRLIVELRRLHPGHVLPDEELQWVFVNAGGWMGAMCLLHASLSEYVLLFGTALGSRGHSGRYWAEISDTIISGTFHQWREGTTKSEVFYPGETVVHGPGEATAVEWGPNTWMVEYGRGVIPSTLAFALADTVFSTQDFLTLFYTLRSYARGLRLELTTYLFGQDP
Excerpt: (§1) S1R and S2R affinities were classically evaluated through competitive binding assays using radioligands, following the protocol described by Ganapathy et al.. The selective radioligand [^3H] (+)-pentazocine was employed as the classic prototypical ligand, selectively binding to the orthosteric S1R-binding sites. […] Jurkat cell membranes served as the receptor source in both assays. The equilibrium dissociation constants (Ki) for S1R and S2R were derived from the IC50 values of each compound, and selectivity ratios (S2R/S1R) were subsequently calculated (Table 1, Figures S2 and S3).
(§2) Binding assays were performed by Eurofins Cerep (Poitiers, France) according to the protocol of Ganapathy. […] For the S2R assay, Jurkat cell membranes (10–20 μg protein/tube) were incubated at room temperature for 1 h in the same buffer with [^3H]-DTG (25 nM) in the presence of (+)-pentazocine (1 μM) to saturate S1R, along with a range of test compound concentrations. Bound radioactivity was quantified by liquid scintillation counting. Nonspecific binding was determined under identical conditions in the presence of 10 μM unlabeled haloperidol. The IC50 values (concentration causing a half-maximal inhibition of control-specific binding) and Hill coefficients (nH) were determined by non-linear regression analysis of the competition curves generated with mean replicate values using Hill equation curve-fitting. This analysis was performed using software developed at Cerep (Hill software) and validated by comparison with data generated by the commercial software SigmaPlot ®4.0 for Windows® (©1997 by SPSS Inc.). Inhibition constants (Ki) were calculated from IC50 values using the method of Cheng and Prusoff.

[2] = target: T2, S2R (Homo sapiens, UniProt Q5BJF2); test: S2R competitive radioligand binding, [3H]-DTG with excess (+)-pentazocine, Jurkat cell membranes; conditions: for IC50: [3H]-DTG displacement with excess (+)-pentazocine, n = 2
T2 construct: For the S2R assay, Jurkat cell membranes (10–20 μg protein/tube) were incubated at room temperature for 1 h; host or cells: Jurkat cell membranes
T2 sequence (Q5BJF2 whole entry): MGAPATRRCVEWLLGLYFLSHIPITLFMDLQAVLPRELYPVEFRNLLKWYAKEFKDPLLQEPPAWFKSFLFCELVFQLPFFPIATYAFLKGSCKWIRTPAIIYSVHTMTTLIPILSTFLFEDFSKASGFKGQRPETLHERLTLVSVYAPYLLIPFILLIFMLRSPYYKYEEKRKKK
Excerpt: as §1, §2

[3] = Cytotoxicity, MTT/MTS assay; format: cell-based, human; conditions: human, SH-SY5Y neuroblastoma cells; percentage of cell death after 24 h treatment at 100 µM (duplicate); read-out: SY5Y % Cytotox
Experimental: (§3) To assess potential cytotoxicity in CNS-relevant cells, human neuroblastoma (SH-SY5Y) cells were exposed to compounds 2–7 at concentrations up to 100 μM. Cell viability was measured using the MTT assay.
(§4) Cytotoxicity was assessed in human SH-SY5Y neuroblastoma cells cultured in Dulbecco’s Modified Eagle Medium (DMEM, Gibco, Thermo Fisher Scientific Inc., Waltham, MA, USA) supplemented with 2 mM L-glutamine, 100 μg/mL streptomycin, 100 IU/mL penicillin, 1 mM non-essential amino acids (all from Invitrogen, Thermo Fisher Scientific Inc., Waltham, MA, USA), and 10% (v/v) heat-inactivated fetal bovine serum (Sigma-Aldrich, Burlington, MA, USA). Cells were maintained at 37 °C in a humidified 5% CO2 atmosphere and serum-starved for 24 h to synchronize cultures before treatment with the test compounds at final concentrations of 100, 50, 10, 5, 1, 0.5, 0.1, or 0.05 μM (all in <0.1% DMSO). […] Absorbance was measured at 490 nm, and the results were expressed as a percentage relative to untreated control cells (set at 100%).

[4] = tested on: SH-SY5Y neuroblastoma cells; test: Cytotoxicity, MTT/MTS assay; format: cell-based, human; conditions: for IC50 (SY5Y)/ Ki (S1R): selectivity index, IC50 was considered > 100 µM
Experimental: as §3, §4

[5] = target: adrenergic α1a receptor (Homo sapiens, UniProt P35348); test: Off-target panel, aequorin functional assay; format: cell-based; conditions: 10 µM, duplicate; % inhibition of reference agonist activity
Chain of adrenergic α1a receptor (P35348 whole entry): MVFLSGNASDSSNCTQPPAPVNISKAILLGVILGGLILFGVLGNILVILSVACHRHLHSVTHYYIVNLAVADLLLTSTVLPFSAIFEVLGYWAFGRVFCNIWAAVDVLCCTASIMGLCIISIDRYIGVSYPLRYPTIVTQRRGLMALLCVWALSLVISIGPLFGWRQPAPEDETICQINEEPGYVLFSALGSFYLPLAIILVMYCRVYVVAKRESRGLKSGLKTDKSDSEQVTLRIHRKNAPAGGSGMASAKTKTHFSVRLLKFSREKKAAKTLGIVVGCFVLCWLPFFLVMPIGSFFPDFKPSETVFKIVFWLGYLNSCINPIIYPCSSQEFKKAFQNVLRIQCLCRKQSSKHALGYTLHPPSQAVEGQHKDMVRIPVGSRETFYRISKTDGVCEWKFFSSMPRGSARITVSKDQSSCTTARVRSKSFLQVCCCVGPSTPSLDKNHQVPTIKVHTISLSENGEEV
Experimental: (§5) Among the synthesized compounds, four derivatives were selected based on their affinity and selectivity profiles. […] The remaining compounds (2, 3, 6, and 7) were assessed for their agonist and antagonist activities across a panel of 58 receptors relevant to CNS disorders, including serotonin, adenosine, adrenergic, cannabinoid, dopamine, histamine, and muscarinic receptors. These assays were conducted at a concentration of 10 µM, in duplicate, utilizing aequorin [19], cAMP HTRF™ [20], and GTPγS binding assays, as detailed in Table 2. […] Specifically, compound 6 antagonized four receptors (5-HT2A, 5-HT2C, α1a, H1), while compound 7 was active against five receptors (5-HT2A, 5-HT3, α1a, H1, M1).
(§6) Rapidly, the tests were performed by Euroscreen (https://euroscreenfast.com/) with recombinant human G-coupled receptor-expressing cell lines using aequorin functional assays for serotonin 5-HT2A, 5-HT2B, 5-HT2C, 5-HT3, and 5-HT5A, adrenergic α1a and α1b, angiotensin AT1, cholesistokinin CCFK1, endothelin ETA, histamine H1, muscarinic M1 and M3, neurokinin NK1 and NK2, vasopressin V1a, and vasoactive intestinal peptide VPAC1 receptor analysis. Then, cAMP HTRF^TM assays were used to analyze serotonin 5-HT1A, 5-HT4E, 5-HT6, and 5-HT7, adenosine A1, A2A, and A3, adrenergic β1 and β2, cannabinoid CB1, dopamine D1, histamine H2, and neuropeptide Y NPY receptors. GTPγS^35 assays were used to analyze serotonin 5-HT1B, adrenergic α2a and α2b, dopamine D2, muscarinic M2 and M4, opioid δ, κ and µ, and somatostatine SST4 receptors.
(§7) Agonist and antagonist activities of the test compound are expressed as the percentage of the activity of the reference agonist at its EC100 concentration or the percentage of inhibition of the reference agonist activity at its EC80 concentration, respectively.
(§8) For the aequorin assays, different cell lines co-expressing the receptors were grown in specific culture media and incubated for 4 h with coelenterazine h. For agonist testing, cell suspensions were mixed with test or reference agonists in a 96-well plate. For antagonist testing, the reference agonist at its EC80 (final concentration) was injected to the mix the containing cells and the tested compound. The resulting emission of light was recorded using the Hamamatsu Functional Drug Screening System 6000 [19].

[6] = target: adrenergic α1b receptor (Homo sapiens, UniProt P35368); test: Off-target panel, aequorin functional assay; format: cell-based; conditions: 10 µM, duplicate; % inhibition of reference agonist activity
Chain of adrenergic α1b receptor (P35368 whole entry): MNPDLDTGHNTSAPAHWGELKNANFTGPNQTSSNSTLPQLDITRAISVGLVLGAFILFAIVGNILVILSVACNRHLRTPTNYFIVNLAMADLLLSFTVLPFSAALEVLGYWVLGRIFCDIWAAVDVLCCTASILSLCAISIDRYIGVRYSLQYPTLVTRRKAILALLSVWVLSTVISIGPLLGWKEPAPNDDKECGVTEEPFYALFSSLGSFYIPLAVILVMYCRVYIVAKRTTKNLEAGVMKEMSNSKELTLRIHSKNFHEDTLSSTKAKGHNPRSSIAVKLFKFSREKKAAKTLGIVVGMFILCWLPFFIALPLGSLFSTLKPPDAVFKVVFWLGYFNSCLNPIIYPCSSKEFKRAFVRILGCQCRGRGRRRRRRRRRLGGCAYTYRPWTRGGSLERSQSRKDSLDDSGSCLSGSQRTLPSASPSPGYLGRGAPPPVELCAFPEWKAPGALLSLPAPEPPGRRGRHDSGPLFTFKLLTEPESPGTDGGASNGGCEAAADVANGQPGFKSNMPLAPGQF
Experimental: as §5, §6, §7, §8

[7] = target: serotonin 5-HT2C receptor (Homo sapiens, UniProt P28335); test: Off-target panel, aequorin functional assay; format: cell-based; conditions: 10 µM, duplicate; % inhibition of reference agonist activity
Chain of serotonin 5-HT2C receptor (P28335 33-458): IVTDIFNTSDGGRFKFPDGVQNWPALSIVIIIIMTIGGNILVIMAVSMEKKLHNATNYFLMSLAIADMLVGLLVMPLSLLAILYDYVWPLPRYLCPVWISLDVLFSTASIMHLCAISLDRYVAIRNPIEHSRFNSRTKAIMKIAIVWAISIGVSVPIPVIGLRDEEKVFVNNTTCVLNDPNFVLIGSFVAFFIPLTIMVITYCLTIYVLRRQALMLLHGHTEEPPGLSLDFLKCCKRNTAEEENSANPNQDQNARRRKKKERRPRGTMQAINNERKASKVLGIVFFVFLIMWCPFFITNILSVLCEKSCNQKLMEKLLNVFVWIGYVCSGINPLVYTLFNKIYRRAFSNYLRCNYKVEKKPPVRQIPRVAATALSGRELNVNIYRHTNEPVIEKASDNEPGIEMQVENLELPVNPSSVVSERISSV
Experimental: as §5, §6, §7, §8

[8] = target: serotonin 5-HT3 receptor (Homo sapiens, UniProt P46098); test: Off-target panel, aequorin functional assay; format: cell-based; conditions: 10 µM, duplicate; % inhibition of reference agonist activity
Chain of serotonin 5-HT3 receptor (P46098 24-478): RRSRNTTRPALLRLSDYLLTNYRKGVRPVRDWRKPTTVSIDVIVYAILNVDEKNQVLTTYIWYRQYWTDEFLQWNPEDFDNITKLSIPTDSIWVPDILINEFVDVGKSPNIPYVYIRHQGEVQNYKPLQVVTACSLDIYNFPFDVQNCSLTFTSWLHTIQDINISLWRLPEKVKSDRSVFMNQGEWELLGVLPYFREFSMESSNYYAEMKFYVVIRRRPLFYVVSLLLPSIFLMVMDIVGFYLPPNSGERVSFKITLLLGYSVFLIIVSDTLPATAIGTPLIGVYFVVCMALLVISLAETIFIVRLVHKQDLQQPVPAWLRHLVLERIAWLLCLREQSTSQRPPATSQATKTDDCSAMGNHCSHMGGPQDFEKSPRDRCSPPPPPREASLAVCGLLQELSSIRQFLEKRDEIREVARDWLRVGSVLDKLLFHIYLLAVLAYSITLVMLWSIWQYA
Experimental: as §5, §6, §7, §8

[9] = target: CXCR1 (Homo sapiens, UniProt P25024); test: Off-target panel of recombinant human receptors; format: cell-based; conditions: 10 µM, duplicate; % inhibition of reference agonist activity
Chain of CXCR1 (P25024 whole entry): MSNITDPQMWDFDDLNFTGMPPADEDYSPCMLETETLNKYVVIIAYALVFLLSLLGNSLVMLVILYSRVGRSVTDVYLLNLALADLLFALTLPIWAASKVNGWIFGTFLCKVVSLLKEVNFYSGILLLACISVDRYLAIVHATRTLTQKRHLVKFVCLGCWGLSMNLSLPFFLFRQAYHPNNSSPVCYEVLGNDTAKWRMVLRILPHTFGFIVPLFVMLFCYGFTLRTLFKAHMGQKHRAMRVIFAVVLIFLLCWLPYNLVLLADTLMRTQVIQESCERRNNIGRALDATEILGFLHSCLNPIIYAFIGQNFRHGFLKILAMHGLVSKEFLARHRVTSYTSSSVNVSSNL
Experimental: as §5, §7

[10] = target: D4.4 (Homo sapiens, UniProt P21917); test: Off-target panel of recombinant human receptors; format: cell-based; conditions: 10 µM, duplicate; % inhibition of reference agonist activity
Chain of D4.4 (P21917 whole entry): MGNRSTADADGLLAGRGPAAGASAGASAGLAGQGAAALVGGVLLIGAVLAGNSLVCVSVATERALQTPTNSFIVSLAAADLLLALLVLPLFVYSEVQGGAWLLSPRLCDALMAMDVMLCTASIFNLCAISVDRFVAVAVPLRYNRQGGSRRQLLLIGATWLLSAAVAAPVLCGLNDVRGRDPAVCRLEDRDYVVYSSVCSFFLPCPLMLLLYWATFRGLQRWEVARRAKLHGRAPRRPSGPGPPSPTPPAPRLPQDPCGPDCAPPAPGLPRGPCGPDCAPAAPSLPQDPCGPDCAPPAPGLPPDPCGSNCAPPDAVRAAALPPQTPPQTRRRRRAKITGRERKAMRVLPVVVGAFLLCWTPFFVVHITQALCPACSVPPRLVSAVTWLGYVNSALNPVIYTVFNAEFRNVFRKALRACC
Experimental: as §5, §7

[11] = target: T3, S1R-BiP complex (Cricetulus griseus, UniProt A0A3L7I3A5); test: S1R-BiP complex dissociation, co-immunoprecipitation and BiP ELISA in CHO cells; format: cell-based; conditions: for S1R-BiP complex levels: 10 µM
T3 construct: host or cells: CHO cells
T3 sequence (A0A3L7I3A5 1-223, one chain of several): as the sequence (Q99720 whole entry) above, with A4S, V5L, A12I, L15F, V25A, S34N, R39Q counted along it
Experimental: The interaction between S1R and BiP provides a reliable assay to identify S1R ligands by monitoring the dynamics of the S1R-BiP complex. In this assay, the known S1R agonist PRE-084 and antagonist NE-100 were used as controls (Figure 3).
The ability of the compounds to promote dissociation of the S1R–BiP complex was assessed by Amylgen (Montferrier-sur-Lez, France) as described in [22, 23]. CHO cells were treated with the test compounds for 30 min at 37 °C, followed by crosslinking with dithiobis(succinimidyl propionate) (DSP; Thermo Scientific, Waltham, MA, USA). Cells were lysed after 15 min on ice, and the lysates were centrifuged. Supernatants were incubated overnight at 4 °C with an anti-S1R antibody (Abcam, Cambridge, UK), and then with Protein A-Sepharose (Invitrogen). After the first centrifugation, pellets were resuspended in radioimmunoprecipitation assay (RIPA) buffer, centrifuged again, and resuspended in 2× sample buffer/bMCE buffer. Following a third centrifugation, the supernatants were analyzed for BiP immunoreactivity using an ELISA kit (SEC343Mu, USCNK Life Sciences, Wuhan, China).
Figure 3 In vitro evaluation of agonist activity of compounds 2, 3, and 6: The effects of compounds 2, 3, and 6 at 1 and 10 µM on the S1R-BiP association after 30 min of incubation were analyzed by co-immunoprecipitation using an anti-S1R antibody (red). BiP levels were quantified by ELISA. PRE-084 (white) and NE-100 (black) served as the reference agonist and antagonist, respectively (10 µM). Agonist activity was confirmed by its blockade with NE-100 (black hatching). […] Data represent the mean ± SEM from n = 6 per condition. Statistical significance was assessed using Dunnett’s test: *** p < 0.0001, * p < 0.05 vs. untreated control; ### p < 0.0001, # p < 0.05 for NE-100 blockade.

Question: For `CN(CCC(=O)NCc1ccc(Cl)cc1)Cc1ccccc1` [Compound 3, 3-(Benzylmethylamino)-N-(4-chlorobenzyl)propanamide], which IC50 [1] is on record?
Answer: The IC50 was 0.0033 µM.

Question: And the “Ki (S2R)/ Ki (S1R)” value [1]?
Answer: The value was 241.

Question: And the IC50 [2]?
Answer: Its IC50 is 0.54 µM.

Question: And the cytotoxicity at 24 h, 100 µM [3]?
Answer: The cytotoxicity at 24 h, 100 µM was 1%.

Question: What about the “IC50 (SY5Y)/ Ki (S1R)” value [4] of the same molecule?
Answer: Its value is >58,823.

Question: And the “α1a [b] antagonist activity” value [5]?
Answer: Its value is 88%.

Question: And the “α1b [b] antagonist activity” value [6]?
Answer: The value was 65%.

Question: And the “5-HT2C [b] antagonist activity” value [7]?
Answer: The value was 76%.

Question: What about the “5-HT3 [b] antagonist activity” value [8] of the same molecule?
Answer: The value was 72%.

Question: What about the “CXCR1 [b] antagonist activity” value [9] of the same molecule?
Answer: Its value is 54%.

Question: What about the “D4.4 [b] antagonist activity” value [10] of the same molecule?
Answer: The value was 84%.

Question: And the “Dissociation of the S1R-BiP complex (in words)” value ([11]; 1 and 10 µM, 30 min incubation, CHO cells, n = 6)?
Answer: The value was “significant, dose-dependent dissociation”.

Question: And the “Dissociation of S1R-BiP complex in the presence of NE-100 (in words)” value ([11]; co-treatment with NE-100 (10 µM))?
Answer: Its value is “completely inhibited”.

Question: Which results are given for `CN(CCC(=O)NCc1ccc([N+](=O)[O-])cc1)Cc1ccccc1` [Compound 7, 3-(Benzylmethylamino)-N-(4-Nitrobenzyl)propanamide]?
Answer: Ki [1]: 110 nM; IC50 [1]: 0.22 µM; Ki (S2R)/ Ki (S1R) [1]: 59; IC50 [2]: 8.6 µM; cytotoxicity at 24 h, 100 µM [3]: 9%; IC50 (SY5Y)/ Ki (S1R) [4]: >909

Question: For `CCCN(CCC)CCc1ccc(OC)c(OCCc2ccccc2)c1` [NE-100, reference compound], which S1R-BiP complex levels ([11]; 30 min incubation, CHO cells) is on record?
Answer: The S1R-BiP complex levels was 90–100 % of the control.

Question: Which IC50 [1] does the source give for `CN(CCC(=O)NCc1ccc(Cl)cc1Cl)Cc1ccccc1` [Compound 5, 3-(Benzylmethylamino)-N-(2,4-Dichlorobenzyl)propanamide] here?
Answer: The IC50 was 0.0045 µM.

Question: What about the “Ki (S2R)/ Ki (S1R)” value [1] of the same molecule?
Answer: Its value is 52.

Question: And the IC50 [2]?
Answer: The IC50 was 0.16 µM.

Question: And the cytotoxicity at 24 h, 100 µM [3]?
Answer: Its cytotoxicity at 24 h, 100 µM is 37%.

Question: What about the “IC50 (SY5Y)/ Ki (S1R)” value [4] of the same molecule?
Answer: Its value is >43,478.

Question: What does the source list for “3-(Benzylmethylamino)-N-(3-bromobenzyl)propanamide [Compound 4]”?
Answer: Ki [1]: > 200 nM; Ki ([2]; [3H]-DTG with (+)-pentazocine, mean of 2–3 independent experiments): > 200 nM; SY5Y % Cytotox ([4]; 100 µM): 6%

Question: For `O=C(OCCN1CCOCC1)C1(c2ccccc2)CCCCC1` [PRE-084, reference compound], which S1R-BiP complex levels ([11]; 30 min incubation, CHO cells) is on record?
Answer: Its S1R-BiP complex levels is “less than 50 % of the control”.
